Broadly, the IC50 is the concentration at which inhibition is half-maximal. Low values mean greater potency in that assay, high ones weaker potency in that assay.

Format in all cases: functional, cell-based
One test concerns A549. Description: Cytotoxicity against human A549 cells after 72 hrs by SRB assay. The note with it: A549, 72 h. Background: In SRB staining, fixed cells bind dye roughly in proportion to their protein.
The next test has as its system HCT-116. The test is described as follows: Cytotoxicity against human HCT116 cells after 72 hrs by SRB assay. As to conditions: HCT-116, 72 h.
A further test has as its system BT-549. Description: Cytotoxicity against human BT549 cells after 72 hrs by SRB assay. The note with it: BT-549, 72 h.
The next test relates to MCF7. Description: Cytotoxicity against human MCF7 cells after 72 hrs by SRB assay. As to conditions: MCF7, 72 h.
The next test concerns SK-HEP1. The test is described as follows: Cytotoxicity against human SKHEP1 cells after 72 hrs by SRB assay. As to conditions: SK-HEP1, 72 h.
For another test, the system named is SNU-638. Description: Cytotoxicity against human SNU638 cells after 72 hrs by SRB assay. The note with it: SNU-638, 72 h.

In the case of `CCS(=O)(=O)Nc1cc(-c2ccc3ncnc(Nc4ccc(OC(F)(F)F)cc4)c3c2)cnc1OC`, the IC50 came to 25.4 µM with A549; 16.6 µM with HCT-116; 8.24 µM in the test with BT-549; 23.7 µM with MCF7; 6.14 µM in the test on SK-HEP1; 22.4 µM in the test on SNU-638.

In the case of `CCS(=O)(=O)Nc1cc(-c2ccc3ncnc(Nc4ccc(OC)c(Cl)c4)c3c2)cnc1OC`, the IC50 was determined as 5.24 µM in the test with A549; 5.62 µM in the test on HCT-116; 2.47 µM with BT-549; 3.32 µM in the test on MCF7; 2.81 µM in the test on SK-HEP1; 3.62 µM in the test on SNU-638.

On to `CCS(=O)(=O)Nc1cc(-c2ccc3ncnc(Nc4ccc(F)cc4F)c3c2)cnc1OC`, for which the IC50 in the test with A549 was 4.71 µM; in the test with HCT-116 it was 4.01 µM; with BT-549 it was 2.48 µM; with MCF7, 1.61 µM; in the test with SK-HEP1, 2.49 µM; in the test on SNU-638 it was 2.05 µM.

As to `CCS(=O)(=O)Nc1cc(-c2ccc3ncnc(Nc4ccc(Cl)c(C(=O)OC)c4)c3c2)cnc1OC`, the IC50 with A549 worked out at 2.13 µM; in the test on HCT-116, 3.13 µM; in the test on BT-549, 2.36 µM; in the test with MCF7, 1.43 µM; in the test with SK-HEP1, 7.06 µM; in the test with SNU-638, 2.2 µM.

Turning to `CCS(=O)(=O)Nc1cc(-c2ccc3ncnc(Nc4ccc(OCc5ccc(F)cc5)c(Cl)c4)c3c2)cnc1OC`, the IC50 turned out to be 31.3 µM in the test on A549; 5.41 µM with HCT-116; 14.6 µM in the test with BT-549; 28.4 µM in the test on MCF7; 1.95 µM with SK-HEP1; 2.36 µM in the test with SNU-638.

Take `CCS(=O)(=O)Nc1cc(-c2ccc3ncnc(Nc4ccc(C(=O)OC)c(OC)c4)c3c2)cnc1OC`: the 50% inhibitory concentration (IC50) in the test with A549 amounted to 3.35 µM; with HCT-116, 1.69 µM; with BT-549 it was 3.76 µM; in the test with MCF7 it was 10.9 µM; with SK-HEP1, 0.83 µM; with SNU-638, 3.44 µM.

As to `CCCCS(=O)(=O)Nc1cc(-c2ccc3ncnc(Nc4cccc(C(=O)OCC)c4)c3c2)cnc1OC`, the 50% inhibitory concentration (IC50) in the test on A549 worked out at 42.3 µM; in the test on HCT-116, 26.7 µM; with BT-549 it was 37.2 µM; in the test with MCF7, 36.4 µM; in the test on SK-HEP1, 21.6 µM; in the test with SNU-638, 25.2 µM.

Consider `COC(=O)c1cccc(Nc2ncnc3ccc(-c4cnc(OC)c(NS(=O)(=O)c5ccc(F)cc5F)c4)cc23)c1`, for which the half-inhibitory concentration (IC50) in the test on A549 came out at 10.5 µM; in the test with HCT-116, 1.5 µM; in the test on BT-549, 12.7 µM; in the test with MCF7, 22.4 µM; in the test on SK-HEP1 it was 2.8 µM; in the test on SNU-638 it was 0.4 µM.

For the molecule `CCS(=O)(=O)Nc1cc(-c2ccc3ncnc(Nc4ccc(OC)nc4)c3c2)cnc1OC`, the IC50 worked out at 5.56 µM in the test with A549; 6.91 µM in the test with HCT-116; 3.49 µM in the test on BT-549; 3.77 µM in the test on MCF7; 3.44 µM in the test with SK-HEP1; 4.28 µM in the test on SNU-638.

As for `CCS(=O)(=O)Nc1cc(-c2ccc3ncnc(Nc4ccc(OC)cc4)c3c2)cnc1OC`, the 50% inhibitory concentration (IC50) stood at 3.58 µM in the test with A549; 3.49 µM in the test with HCT-116; 1.88 µM with BT-549; 1.79 µM in the test on MCF7; 1.61 µM with SK-HEP1; 3.97 µM in the test with SNU-638.

`CCS(=O)(=O)Nc1cc(-c2ccc3ncnc(Nc4ccc(F)nc4)c3c2)cnc1OC`: the IC50 in the test on A549 amounted to 6.72 µM; in the test on HCT-116 it was 7.62 µM; in the test with BT-549, 4.78 µM; in the test on MCF7, 5.39 µM; in the test on SK-HEP1, 5.24 µM; in the test with SNU-638 it was 6.52 µM.

Consider `CCS(=O)(=O)Nc1cc(-c2ccc3ncnc(Nc4ccc(F)c(C(=O)OC)c4)c3c2)cnc1OC`, for which the half-maximal inhibitory concentration (IC50) with A549 was determined as 3.42 µM; in the test with HCT-116, 2.36 µM; with BT-549, 2.74 µM; in the test with MCF7, 1.15 µM; in the test on SK-HEP1, 5.18 µM; with SNU-638, 2.54 µM.

These data come from ChEMBL document CHEMBL4196007, “Design, synthesis and biological evaluation of novel 4-aminoquinazolines as dual target inhibitors of EGFR-PI3Kα” (Eur J Med Chem, 2018).
